Experimental findings from PubChem BioAssay (NCI) are described below.

Holding throughout (assay): growth of human tumour cells (NCI), 48 h
Test [1] has as its system MOLT-4 leukemia.
Test [2] relates to HCT-116 colon.
Test [3] has as its system SF-539 CNS.
For test [4], the system named is PC-3 prostate.
The test system of test [5] is SW-620 colon.
Test [6] deals with T-47D breast.
Test [7] deals with SF-268 CNS.
For test [8], the system named is RXF 393 renal.
For test [9], the system named is CCRF-CEM leukemia.
The test system of test [10] is OVCAR-4 ovarian.
Test [11] concerns HCC-2998 colon.
In test [12] the test system is SNB-75 CNS.

The structures appear in SMILES notation.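 Following 48 hours of exposure in 96-well plates, responses at five concentrations were used to interpolate endpoints linearly. TGI denotes the concentration required for complete inhibition of growth.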

Regarding `O=C1CCSCCC(=O)Nc2ccccc2N1`, the TGI in [1], in [2], in [3], in [4], in test [5] and in test [6] was > 100 µM each time. Further, the TGI in test [7], in test [8], in test [9] and in [10] was > 100 µM throughout.

For `COc1ccc(/C(Cl)=C(\C#N)c2ccc(OC)c(OC)c2)cc1OC`, the TGI in test [1], in [2], in [3], in test [4], in test [5] and in [6] was > 100 µM each time. For the same compound, the TGI in [8], in test [11] and in test [10] was > 100 µM throughout.

Take `CCCCC1Cc2cc(O)ccc2-c2nc3cc(O)ccc3n21` (configuration not stated) (tested in a mixture with another compound): the TGI was 46.9 µM in [1]; 27 µM in test [2]; 28.5 µM in test [3]; 53.3 µM in test [4]; 39.5 µM in [5]; > 100 µM in [6]. The TGI in test [7] was 33.3 µM; in test [8], 35.6 µM; in test [11], 27.4 µM; in test [9] it was 51.8 µM; in [10], 30.8 µM.

`NC1(CCNC(=O)c2ccccc2)CCN(C(=O)c2ccccc2)CC1`: the TGI in test [1], in test [2], in [3], in [4], in [5] and in test [6] was > 100 µM throughout. The TGI in test [7], in test [8], in test [12] and in test [9] was > 100 µM each time.

Regarding `NCCCNCCCCN1CCOC1=O`, the TGI in test [1], in [2], in test [3], in [4], in test [5] and in test [6] was > 100 µM in each case. Also, the TGI in test [7], in [11], in [12] and in test [9] was > 100 µM throughout.

For the compound `C/C(=N\NC(=S)N1CCCC1)c1nc2ncccc2[nH]1`, the TGI in test [1] was 3.7 µM; in [2], 18.1 µM; in test [3], 0.523 µM; in test [4] it was > 100 µM; in test [5], 64.4 µM; in test [6] it was > 100 µM. The TGI in test [7] was > 100 µM; in [11] it was > 100 µM; in test [12], > 100 µM; in test [9] it was 1.1 µM; in test [10], 18.6 µM.

`S=C1NCCN1C(=S)Nc1ccccc1`: the TGI in test [1], in test [2], in test [3], in test [5], in test [6] and in [7] was > 100 µM throughout. Besides, the TGI in test [8] is 58 µM; in [11], > 100 µM; in test [12], > 100 µM; in test [9] it was > 100 µM; in [10], > 100 µM.

Turning to `COCn1cnc2c(=O)nc(SC)n(-c3ccccc3)c21`, the TGI in test [1], in [2], in test [3], in test [5], in [6] and in test [7] was > 100 µM each time. In addition, the TGI in [8], in test [11], in test [12], in test [9] and in test [10] was > 100 µM each time.

As to `Cc1n[n+](Cc2ccccc2)c2sc(N)nn12`, the TGI in test [1], in [2], in [3], in [4], in [5] and in [6] was > 100 µM throughout. For the same compound, the TGI in test [7], in [8], in test [12], in [9] and in test [10] was > 100 µM in each case.

For the compound `c1ccc2c3[nH]c(c2c1)=Nc1ccc(cc1)-c1nc2ccc(cc2o1)N=c1[nH]c(c2ccccc12)=Nc1ccc2nc(oc2c1)-c1ccc(cc1)N=3`, the TGI in test [1], in test [2], in [3], in [4], in test [5] and in test [6] was > 100 µM throughout. In addition, the TGI in test [7] was > 100 µM; in test [8] it was > 100 µM; in [11] it was 42.7 µM; in [12], > 100 µM; in [9], 26.7 µM.

As to `COC(=O)[C@@H](NC(=O)N(Cc1ccccc1)C[C@H](CC(C)C)NC(=O)[C@@H](NC(=O)OC(C)(C)C)C(C)C)C(C)C`, the TGI in test [1], in test [2], in [3], in [4], in [5] and in [6] was > 100 µM in each case. Besides, the TGI in test [7], in test [8], in [11], in test [12] and in test [10] was > 100 µM in each case.

`Cc1[nH]n(-c2nc(O)c(-c3ccccc3)c(=O)[nH]2)c(=O)c1CCO`: the TGI in test [1], in [2], in [3], in [4], in test [5] and in test [6] was > 100 µM throughout. Also, the TGI in test [7], in test [8], in test [12], in [9] and in test [10] was > 100 µM throughout.
